In US7030150B2, “Benzimidazole compounds and antiviral uses thereof” (Trimeris, Inc., priority 2001, dated 2006):

These molecules were tested on uninfected Hep2 cells.

Compound | CC50
ClCc1nc2ccccc2n1Cc1nc2ccccc2[nH]1 [compound 1] | 50 µM
Cc1nc(Cn2c(CN(C(C)C)C3CCCCC3)nc3ccccc32)cs1 [compound 2] | 50 µM
COc1cc(Cn2c(CN(C(C)C)C3CCCCC3)nc3ccccc32)cc(OC)c1 [compound 3] | 50 µM
CC(C)N(Cc1nc2ccccc2n1Cc1c2ccccc2nc2ccccc12)C1CCCCC1 [compound 10] | ≥ 100 µM
COC(=O)c1ccc2nc(CN3CCOCC3)n(Cc3nc4ccccc4[nH]3)c2c1 [compound 11] | 26 µM
CC(C)N(Cc1nc2ccccc2n1Cc1cccc(Oc2ccccc2)c1)C1CCCCC1 [compound 12] | ≥ 100 µM
CC(C)N(Cc1nc2ccccc2n1Cc1ccc(S(C)(=O)=O)cc1)C1CCCCC1 [compound 13] | ≥ 100 µM
CSc1ccc(Cn2c(CN(C(C)C)C3CCCCC3)nc3ccccc32)cc1 [compound 14] | 30 µM
CCCN(Cc1nc2ccccc2n1Cc1ccc2ccccc2n1)CC1CC1 [compound 20] | 50 µM
CCCN(Cc1nc2ccccc2n1Cc1csc(C)n1)CC1CC1 [compound 21] | 50 µM
CCCN(Cc1nc2ccccc2n1Cc1c2ccccc2nc2ccccc12)CC1CC1 [compound 23] | ≥ 101 µM
CCCN(Cc1nc2ccccc2n1Cc1cc(F)cc2c1OCOC2)CC1CC1 [compound 24] | 82 µM
CCCN(Cc1nc2ccccc2n1Cc1cccc(Oc2ccccc2)c1)CC1CC1 [compound 25] | ≥ 101 µM
CCCN(Cc1nc2ccccc2n1Cc1ccc(S(C)(=O)=O)cc1)CC1CC1 [compound 26] | 97 µM
Cc1nc(Cn2c(CN(Cc3ccccc3)C(C)C)nc3ccccc32)cs1 [compound 40] | 50 µM
c1ccc2nc(Cn3c(CN4CCCCC4)nc4ccccc43)ccc2c1 [compound 50] | 50 µM
Cc1nc(Cn2c(CN3CCCCC3)nc3ccccc32)cs1 [compound 51] | 50 µM
O=[N+]([O-])c1ccc(Cn2c(CN3CCCCC3)nc3ccccc32)o1 [compound 54] | 97 µM
Fc1cc2c(c(Cn3c(CN4CCCCC4)nc4ccccc43)c1)OCOC2 [compound 59] | ≥ 100 µM
CS(=O)(=O)c1ccc(Cn2c(CN3CCCCC3)nc3ccccc32)cc1 [compound 60] | ≥ 100 µM
CSc1ccc(Cn2c(CN3CCCCC3)nc3ccccc32)cc1 [compound 61] | 20 µM
FC(F)(F)Oc1ccccc1Cn1c(CN2CCCCC2)nc2ccccc21 [compound 62] | 34 µM
c1ccc2c(Cn3c(CN4CCCCC4)nc4ccccc43)c3ccccc3nc2c1 [compound 72] | ≥ 100 µM

Compound | CC50
Fc1cc2c(c(Cn3c(CN4CCCCC4)nc4ccccc43)c1)OCOC2 [compound 73] | 101 µM
c1ccc(Oc2cccc(Cn3c(CN4CCCCC4)nc4ccccc43)c2)cc1 [compound 74] | 10 µM
FC(F)(F)Oc1ccccc1Cn1c(CN2CCCCC2)nc2ccccc21 [compound 75] | 24 µM
CSc1ccc(Cn2c(CN3CCCCC3)nc3ccccc32)cc1 [compound 76] | 11 µM
O=[N+]([O-])c1ccc(Cn2c(CN3CCCCC3)nc3ccccc32)o1 [compound 77] | ≥ 100 µM
c1ccc2[nH]c(Cn3c(CN4CCCCC4)nc4ccccc43)nc2c1 [compound 79] | ≥ 100 µM
CN1CCC(N(C)Cc2nc3ccccc3n2Cc2nc3ccccc3[nH]2)CC1 [compound 80] | 58 µM
CCN(Cc1nc2ccccc2n1Cc1nc2ccccc2[nH]1)C(C)C [compound 81] | 63 µM
CC(C)N(C)Cc1nc2ccccc2n1Cc1nc2ccccc2[nH]1 [compound 82] | 25 µM
C=CCN(C)Cc1nc2ccccc2n1Cc1nc2ccccc2[nH]1 [compound 83] | 58 µM
CN(C)CCN(C)Cc1nc2ccccc2n1Cc1nc2ccccc2[nH]1 [compound 84] | ≥ 100 µM
CN(Cc1ccco1)Cc1nc2ccccc2n1Cc1nc2ccccc2[nH]1 [compound 85] | ≥ 100 µM
CC(C)CCN(CCC(C)C)Cc1nc2ccccc2n1Cc1nc2ccccc2[nH]1 [compound 87] | ≥ 100 µM
CCCCCCN(C)Cc1nc2ccccc2n1Cc1nc2ccccc2[nH]1 [compound 88] | ≥ 100 µM
C=C(C)CN(CC)Cc1nc2ccccc2n1Cc1nc2ccccc2[nH]1 [compound 89] | ≥ 100 µM
C#CCN(C)Cc1nc2ccccc2n1Cc1nc2ccccc2[nH]1 [compound 90] | ≥ 100 µM
CCCCCN(C)Cc1nc2ccccc2n1Cc1nc2ccccc2[nH]1 [compound 91] | 80 µM
CCCCN(CC)Cc1nc2ccccc2n1Cc1nc2ccccc2[nH]1 [compound 92] | 68 µM
C#CCCN(C)Cc1nc2ccccc2n1Cc1nc2ccccc2[nH]1 [compound 94] | 16 µM
COC(=O)CN(C)Cc1nc2ccccc2n1Cc1nc2ccccc2[nH]1 [compound 95] | ≥ 100 µM
CCN(CCO)Cc1nc2ccccc2n1Cc1nc2ccccc2[nH]1 [compound 96] | ≥ 100 µM
CN(Cc1nc2ccccc2n1Cc1nc2ccccc2[nH]1)CC(O)c1ccc(O)cc1 (stereo not shown) [compound 97] | 77 µM
CN(CCc1ccccn1)Cc1nc2ccccc2n1Cc1nc2ccccc2[nH]1 [compound 98] | ≥ 100 µM

Compound | CC50
CCN(Cc1ccncc1)Cc1nc2ccccc2n1Cc1nc2ccccc2[nH]1 [compound 99] | ≥ 100 µM
CCCCN(CCCC)CCCNCc1nc2ccccc2n1Cc1nc2ccccc2[nH]1 [compound 100] | 9.3 µM
CN(C)CCCN(CCCN(C)C)Cc1nc2ccccc2n1Cc1nc2ccccc2[nH]1 [compound 101] | ≥ 100 µM
N=C(N)NCc1nc2ccccc2n1Cc1nc2ccccc2[nH]1 [compound 104] | ≥ 100 µM
c1ccc2[nH]c(Cn3c(CNCCCn4ccnc4)nc4ccccc43)nc2c1 [compound 105] | 26 µM
CCCCCCCCN(CCCCCCCC)Cc1nc2ccccc2n1Cc1nc2ccccc2[nH]1 [compound 106] | 74 µM
CC(C)N(Cc1nc2ccccc2n1Cc1nc2ccccc2[nH]1)CC(O)c1ccc(O)c(O)c1 (stereo not shown) [compound 107] | ≥ 100 µM
COc1ccc(N(C)Cc2nc3ccccc3n2Cc2nc3ccccc3[nH]2)cc1 [compound 110] | ≥ 100 µM
CN(Cc1nc2ccccc2n1Cc1nc2ccccc2[nH]1)C(c1ccccc1)c1ccccc1 [compound 111] | ≥ 100 µM
CN1CCN(CCCNCc2nc3ccccc3n2Cc2nc3ccccc3[nH]2)CC1 [compound 112] | ≥ 100 µM
c1cncc(CNCc2nc3ccccc3n2Cc2nc3ccccc3[nH]2)c1 [compound 113] | ≥ 100 µM
Fc1ccc(F)c(CNCc2nc3ccccc3n2Cc2nc3ccccc3[nH]2)c1 [compound 114] | ≥ 100 µM
FC(F)(F)Oc1ccc(CNCc2nc3ccccc3n2Cc2nc3ccccc3[nH]2)cc1 [compound 115] | ≥ 100 µM
COCCCNCc1nc2ccccc2n1Cc1nc2ccccc2[nH]1 [compound 116] | ≥ 100 µM
OCCNCc1nc2ccccc2n1Cc1nc2ccccc2[nH]1 [compound 117] | ≥ 100 µM
c1ccc2[nH]c(Cn3c(CNC4CC5CCC4C5)nc4ccccc43)nc2c1 (stereo not shown) [compound 119] | ≥ 100 µM
COc1ccc(CCNCc2nc3ccccc3n2Cc2nc3ccccc3[nH]2)cc1 [compound 120] | ≥ 100 µM
COc1cc(CNCc2nc3ccccc3n2Cc2nc3ccccc3[nH]2)cc(OC)c1 [compound 122] | ≥ 100 µM
CCNCc1nc2ccccc2n1Cc1nc2ccccc2[nH]1 [compound 123] | ≥ 100 µM
c1ccc2[nH]c(Cn3c(CNCCCN4CCOCC4)nc4ccccc43)nc2c1 [compound 124] | ≥ 100 µM
c1ccc(CCNCc2nc3ccccc3n2Cc2nc3ccccc3[nH]2)nc1 [compound 125] | ≥ 100 µM
Fc1ccc(CNCc2nc3ccccc3n2Cc2nc3ccccc3[nH]2)cc1 [compound 126] | ≥ 100 µM
FC(F)(F)Oc1cccc(CNCc2nc3ccccc3n2Cc2nc3ccccc3[nH]2)c1 [compound 127] | ≥ 100 µM

Compound | CC50
CCCNCc1nc2ccccc2n1Cc1nc2ccccc2[nH]1 [compound 128] | ≥ 100 µM
CC(C)OCCCNCc1nc2ccccc2n1Cc1nc2ccccc2[nH]1 [compound 129] | ≥ 100 µM
c1ccc(C(CNCc2nc3ccccc3n2Cc2nc3ccccc3[nH]2)c2ccccc2)cc1 [compound 132] | ≥ 100 µM
COc1cccc(CCNCc2nc3ccccc3n2Cc2nc3ccccc3[nH]2)c1 [compound 135] | ≥ 100 µM
c1ccc2[nH]c(Cn3c(CNCCCn4ccnc4)nc4ccccc43)nc2c1 [compound 136] | ≥ 100 µM
c1ccc(CN2CCC(NCc3nc4ccccc4n3Cc3nc4ccccc4[nH]3)CC2)cc1 [compound 137] | 95 µM
Clc1ccc(CNCc2nc3ccccc3n2Cc2nc3ccccc3[nH]2)cc1Cl [compound 138] | 6.5 µM
FC(F)(F)c1ccccc1CNCc1nc2ccccc2n1Cc1nc2ccccc2[nH]1 [compound 139] | 18 µM
O=C1CCCN1CCCNCc1nc2ccccc2n1Cc1nc2ccccc2[nH]1 [compound 141] | 35 µM
c1csc(CNCc2nc3ccccc3n2Cc2nc3ccccc3[nH]2)c1 [compound 142] | ≥ 100 µM
COc1ccc(CNCc2nc3ccccc3n2Cc2nc3ccccc3[nH]2)cc1 [compound 146] | ≥ 100 µM
c1ccc2[nH]c(Cn3c(CNCCCN4CCCC4)nc4ccccc43)nc2c1 [compound 147] | ≥ 100 µM
CCN(CC)CCCC(C)NCc1nc2ccccc2n1Cc1nc2ccccc2[nH]1 (stereo not shown) [compound 148] | ≥ 100 µM
c1ccc(CN2CCC(NCc3nc4ccccc4n3Cc3nc4ccccc4[nH]3)C2)cc1 (stereo not shown) [compound 149] | 39 µM
Clc1ccccc1CNCc1nc2ccccc2n1Cc1nc2ccccc2[nH]1 [compound 150] | ≥ 100 µM
FC(F)(F)c1ccc(CNCc2nc3ccccc3n2Cc2nc3ccccc3[nH]2)cc1 [compound 151] | ≥ 100 µM
CC(C)NCc1nc2ccccc2n1Cc1nc2ccccc2[nH]1 [compound 152] | ≥ 100 µM
c1coc(CNCc2nc3ccccc3n2Cc2nc3ccccc3[nH]2)c1 [compound 154] | ≥ 100 µM
Clc1cccc(CNCc2nc3ccccc3n2Cc2nc3ccccc3[nH]2)c1 [compound 157] | ≥ 100 µM
O=C1CCCN1CCCNCc1nc2ccccc2n1Cc1nc2ccccc2[nH]1 [compound 158] | ≥ 100 µM
CCOCCCNCc1nc2ccccc2n1Cc1nc2ccccc2[nH]1 [compound 159] | ≥ 100 µM
CC1CCCCN1CCCNCc1nc2ccccc2n1Cc1nc2ccccc2[nH]1 (stereo not shown) [compound 160] | 88 µM
